Test results from patent US12514251B2, “Fused heterocyclic compounds and their use as pest control agents” (priority 2020, dated 2026).

Tested on: Plutella xylostella
Assay: Plutella xylostella, leaf dip method
Format: in vivo
Conditions: foliar, cabbage leaf dip, second instar larvae, 72 h after release, dead + moribund vs untreated control, read-out: percent mortality
Description: The leaf dip method was used for testing, wherein the required quantity of the compound was weighed and dissolved in a tube containing solvent solution. The tube was put on a vortex at 2000 rpm for 90 min for proper mixing, then diluted with 0.01% Triton-X solution to get the desired test concentration. Cabbage leaves were dipped in the compound solution for 10 seconds, shade dried for 20 min and then transferred into the cells of bioassay trays. A single second instar larva was released into each cell and the tray was covered with a lid. The bio-assay trays were then kept under laboratory conditions at a temperature of 25° C. and a relative humidity of 70%. Observations on dead, moribund and alive larvae were recorded 72 h after the release. Percent mortality was calculated by combining dead and moribund larvae and comparing the result to the one of the untreated control.

SMILES | mortality at 300 ppm [%]
CCS(=O)(=O)c1ccc(-n2cncn2)nc1-c1ccn2nc(C(F)(F)F)cc2n1 [Compound 3, 5-(3-(ethylsulfonyl)-6-(1H-1,2,4-triazol-1-yl)pyridin-2-yl)-2-(trifluoromethyl)pyrazolo[1,5-a]pyrimidine] | ≥ 70
CCS(=O)(=O)c1ccc(N2CCn3c(nnc3C(F)(F)F)C2)nc1-c1ccn2nc(C(F)(F)F)cc2n1 [Compound 6, 7-(5-(ethylsulfonyl)-6-(2-(trifluoromethyl)pyrazolo[1,5-a]pyrimidin-5-yl)pyridin-2-yl)-3-(trifluoromethyl)-5,6,7,8-tetrahydro-[1,2,4]triazolo[4,3-a]pyrazine] | ≥ 70
CCS(=O)(=O)c1ccc(-n2ncn(-c3ccc(OC(F)(F)F)cc3)c2=O)nc1-c1ccn2nc(C(F)(F)F)cc2n1 [Compound 10, 2-(5-(ethylsulfonyl)-6-(2-(trifluoromethyl)pyrazolo[1,5-a]pyrimidin-5-yl)pyridin-2-yl)-4-(4-(trifluoromethoxy)phenyl)-2,4-dihydro-3H-1,2,4-triazol-3-one] | ≥ 70
CCS(=O)(=O)c1ccc(-c2ccccc2)nc1-c1ccn2nc(C(F)(F)F)cc2n1 [Compound 15, 5-(3-(ethylsulfonyl)-6-phenylpyridin-2-yl)-2-(trifluoromethyl)pyrazolo[1,5-a]pyrimidine] | ≥ 70
CCS(=O)(=O)c1ccc(-c2ccc(F)cc2)nc1-c1ccn2nc(C(F)(F)F)cc2n1 [Compound 16, 5-(3-(ethylsulfonyl)-6-(4-fluorophenyl)pyridin-2-yl)-2-(trifluoromethyl)pyrazolo[1,5-a]pyrimidine] | ≥ 70
CCS(=O)(=O)c1ccc(-c2ccc(C#N)cc2)nc1-c1ccn2nc(C(F)(F)F)cc2n1 [Compound 18, 4-(5-(ethylsulfonyl)-6-(2-(trifluoromethyl)pyrazolo[1,5-a]pyrimidin-5-yl)pyridin-2-yl)benzonitrile] | ≥ 70
CCS(=O)(=O)c1ccc(-c2ccc(Cl)cc2)nc1-c1ccn2nc(C(F)(F)F)cc2n1 [Compound 20, 5-(6-(4-chlorophenyl)-3-(ethylsulfonyl)pyridin-2-yl)-2-(trifluoromethyl)pyrazolo[1,5-a]pyrimidine] | ≥ 70
CCS(=O)(=O)c1ccc(-c2cccc(C#N)c2)nc1-c1ccn2nc(C(F)(F)F)cc2n1 [Compound 23, 3-(5-(ethylsulfonyl)-6-(2-(trifluoromethyl)pyrazolo[1,5-a]pyrimidin-5-yl)pyridin-2-yl)benzonitrile] | ≥ 70
CCS(=O)(=O)c1ccc(-n2nc3ccc(C(F)(F)F)cn3c2=O)nc1-c1ccn2nc(C(F)(F)F)cc2n1 [Compound 27, 2-(5-(ethylsulfonyl)-6-(2-(trifluoromethyl)pyrazolo[1,5-a]pyrimidin-5-yl)pyridin-2-yl)-6-(trifluoromethyl)-[1,2,4]triazolo[4,3-a]pyridin-3(2H)-one] | ≥ 70
CCS(=O)(=O)c1ccc(-c2ccc(OC(F)(F)C(F)F)cc2)nc1-c1ccn2nc(C(F)(F)F)cc2n1 [Compound 28, 5-(3-(ethylsulfonyl)-6-(4-(1,1,2,2-tetrafluoroethoxy)phenyl)pyridin-2-yl)-2-(trifluoromethyl)pyrazolo[1,5-a]pyrimidine] | ≥ 70
CCS(=O)(=O)c1cc(-c2ccn3nc(C(F)(F)F)cc3n2)cnc1-n1cncn1 [Compound 31, 5-(5-(ethylsulfonyl)-6-(1H-1,2,4-triazol-1-yl)pyridin-3-yl)-2-(trifluoromethyl)pyrazolo[1,5-a]pyrimidine] | ≥ 70
CCSc1cc(-n2cncn2)cnc1-c1ccn2nc(C(F)(F)F)cc2n1 [Compound 32, 5-(3-(ethylthio)-5-(1H-1,2,4-triazol-1-yl)pyridin-2-yl)-2-(trifluoromethyl)pyrazolo[1,5-a]pyrimidine] | ≥ 70
CCSc1ccc(-n2cncn2)nc1-c1cnc2cc(C(F)(F)F)nn2c1 [Compound 40, 6-(3-(ethylthio)-6-(1H-1,2,4-triazol-1-yl)pyridin-2-yl)-2-(trifluoromethyl)pyrazolo[1,5-a]pyrimidine] | ≥ 70
CCS(=O)(=O)c1ccc(-c2ccc(Cl)cc2)nc1-c1cnc2nc(C(F)(F)F)nn2c1 [Compound 47, 6-(6-(4-chlorophenyl)-3-(ethylsulfonyl)pyridin-2-yl)-2-(trifluoromethyl)-[1,2,4]triazolo[1,5-a]pyrimidine] | ≥ 70
CCS(=O)(=O)c1ccc(-n2cncn2)nc1-c1cnc2cc(C(F)(F)F)nn2c1 [Compound 54, 6-(3-(ethylsulfonyl)-6-(1H-1,2,4-triazol-1-yl)pyridin-2-yl)-2-(trifluoromethyl)pyrazolo[1,5-a]pyrimidine] | ≥ 70
CCSc1cc(-c2ccnn2C)cnc1-c1ccn2nc(C(F)(F)F)cc2n1 [Compound 67, 5-(3-(ethylthio)-5-(1-methyl-1H-pyrazol-5-yl)pyridin-2-yl)-2-(trifluoromethyl)pyrazolo[1,5-a]pyrimidine] | ≥ 70

SMILES | mortality at 300 ppm [%]
CCS(=O)(=O)c1cc(-n2cnc(C)n2)cnc1-c1ccn2nc(C(F)(F)F)cc2n1 [Compound 69, 5-(3-(ethylsulfonyl)-5-(3-methyl-1H-1,2,4-triazol-1-yl)pyridin-2-yl)-2-(trifluoromethyl)pyrazolo[1,5-a]pyrimidine] | ≥ 70
CCS(=O)(=O)c1cc(-c2ccnn2C)cnc1-c1ccn2nc(C(F)(F)F)cc2n1 [Compound 71, 5-(3-(ethylsulfonyl)-5-(1-methyl-1H-pyrazol-5-yl)pyridin-2-yl)-2-(trifluoromethyl)pyrazolo[1,5-a]pyrimidine] | ≥ 70
CCS(=O)(=O)c1cc(-c2cc(C(F)(F)F)nn2C)cnc1-c1ccn2nc(C(F)(F)F)cc2n1 [Compound 78, 5-(3-(ethylsulfonyl)-5-(1-methyl-3-(trifluoromethyl)-1H-pyrazol-5-yl)pyridin-2-yl)-2-(trifluoromethyl)pyrazolo[1,5-a]pyrimidine] | ≥ 70
CCS(=O)(=O)c1cc(-c2ccn3nc(C(F)(F)F)cc3n2)cnc1-n1ncn(-c2ccc(Cl)cc2)c1=O [Compound 80, 4-(4-chlorophenyl)-2-(3-(ethylsulfonyl)-5-(2-(trifluoromethyl)pyrazolo[1,5-a]pyrimidin-5-yl)pyridin-2-yl)-2,4-dihydro-3H-1,2,4-triazol-3-one] | ≥ 70
CCS(=O)(=O)c1cc(-n2cc(Br)cn2)cnc1-c1ccn2nc(C(F)(F)F)cc2n1 [Compound 88, 5-(5-(4-bromo-1H-pyrazol-1-yl)-3-(ethylsulfonyl)pyridin-2-yl)-2-(trifluoromethyl)pyrazolo[1,5-a]pyrimidine] | ≥ 70
CCS(=O)(=O)c1cc(-n2cc(Cl)cn2)cnc1-c1ccn2nc(C(F)(F)F)cc2n1 [Compound 89] | ≥ 70
CCS(=O)(=O)c1cc(-c2cncnc2)cnc1-c1ccn2nc(C(F)(F)F)cc2n1 [Compound 95, 5-(3-(ethylsulfonyl)-5-(pyrimidin-5-yl)pyridin-2-yl)-2-(trifluoromethyl)pyrazolo[1,5-a]pyrimidine] | ≥ 70
CCS(=O)(=O)c1cc(-c2cnn(C)c2)cnc1-c1ccn2nc(C(F)(F)F)cc2n1 [Compound 97, 5-(3-(ethylsulfonyl)-5-(1-methyl-1H-pyrazol-4-yl)pyridin-2-yl)-2-(trifluoromethyl)pyrazolo[1,5-a]pyrimidine] | ≥ 70
CCS(=O)(=O)c1cc(-c2cc(Cl)cc(Cl)c2)cnc1-c1ccn2nc(C(F)(F)F)nc2n1 [Compound 102, 5-(5-(3,5-dichlorophenyl)-3-(ethylsulfonyl)pyridin-2-yl)-2-(trifluoromethyl)-[1,2,4]triazolo[1,5-a]pyrimidine] | ≥ 70
CCS(=O)(=O)c1cc(-c2cc(F)cc(F)c2)cnc1-c1ccn2nc(C(F)(F)F)nc2n1 [Compound 103, 5-(5-(3,5-difluorophenyl)-3-(ethylsulfonyl)pyridin-2-yl)-2-(trifluoromethyl)-[1,2,4]triazolo[1,5-a]pyrimidine] | ≥ 70
CCS(=O)(=O)c1cc(-c2ccc(OC(F)(F)C(F)F)cc2)cnc1-c1ccn2nc(C(F)(F)F)nc2n1 [Compound 104, 5-(3-(ethylsulfonyl)-5-(4-(1,1,2,2-tetrafluoroethoxy)phenyl)pyridin-2-yl)-2-(trifluoromethyl)-[1,2,4]triazolo[1,5-a]pyrimidine] | ≥ 70
CCS(=O)(=O)c1cc(-c2ccc(F)cc2)cnc1-c1ccn2nc(C(F)(F)F)nc2n1 [Compound 105, 5-(3-(ethylsulfonyl)-5-(4-fluorophenyl)pyridin-2-yl)-2-(trifluoromethyl)-[1,2,4]triazolo[1,5-a]pyrimidine] | ≥ 70
CCS(=O)(=O)c1cc(-c2cccc(C(F)(F)F)c2)cnc1-c1ncc2nc(C(F)(F)F)n(C)c2n1 [Compound 117, 2-(3-(ethylsulfonyl)-5-(3-(trifluoromethyl)phenyl)pyridin-2-yl)-9-methyl-8-(trifluoromethyl)-9H-purine] | ≥ 70
CCS(=O)(=O)c1cc(-c2ccc(F)cc2)cnc1-c1ncc2nc(C(F)(F)F)n(C)c2n1 [Compound 118, 2-(3-(ethylsulfonyl)-5-(4-fluorophenyl)pyridin-2-yl)-9-methyl-8-(trifluoromethyl)-9H-purine] | ≥ 70
CCS(=O)(=O)c1cc(-c2ccc(OC(F)(F)F)cc2)cnc1-c1ncc2nc(C(F)(F)F)n(C)c2n1 [Compound 119, 2-(3-(ethylsulfonyl)-5-(4-(trifluoromethoxy)phenyl)pyridin-2-yl)-9-methyl-8-(trifluoromethyl)-9H-purine] | ≥ 70
CCS(=O)(=O)c1cc(-c2cc(C(F)(F)F)nn2C)cnc1-c1ncc2nc(C(F)(F)F)n(C)c2n1 [Compound 121, 2-(3-(ethylsulfonyl)-5-(1-methyl-3-(trifluoromethyl)-1H-pyrazol-5-yl)pyridin-2-yl)-9-methyl-8-(trifluoromethyl)-9H-purine] | ≥ 70
